According to article PMC11005446 (European journal of pharmaceutical sciences : official …, 2021):
Read-outs that look alike come from different tables or passages of the source. Each block holds one compound with its values, some of them ahead of it.

How the values were obtained:
[1] = system: OATP1B1 and OATP1B3; conditions: for Co-Incubation R / Pre+Co-Incubation R: Hepatocytes, substrate rosuvastatin, R-value model; for accumulation of [3H]rosuvastatin after inhibitor pre-incubation: washing
[2] = target: T1, OATP1B3 (Homo sapiens, UniProt Q9NPD5); experiment: Inhibition of [3H]CCK-8 accumulation in human SCH; type: in vitro ADME; conditions: mean ± SE
T1 sequence (Q9NPD5 1-702): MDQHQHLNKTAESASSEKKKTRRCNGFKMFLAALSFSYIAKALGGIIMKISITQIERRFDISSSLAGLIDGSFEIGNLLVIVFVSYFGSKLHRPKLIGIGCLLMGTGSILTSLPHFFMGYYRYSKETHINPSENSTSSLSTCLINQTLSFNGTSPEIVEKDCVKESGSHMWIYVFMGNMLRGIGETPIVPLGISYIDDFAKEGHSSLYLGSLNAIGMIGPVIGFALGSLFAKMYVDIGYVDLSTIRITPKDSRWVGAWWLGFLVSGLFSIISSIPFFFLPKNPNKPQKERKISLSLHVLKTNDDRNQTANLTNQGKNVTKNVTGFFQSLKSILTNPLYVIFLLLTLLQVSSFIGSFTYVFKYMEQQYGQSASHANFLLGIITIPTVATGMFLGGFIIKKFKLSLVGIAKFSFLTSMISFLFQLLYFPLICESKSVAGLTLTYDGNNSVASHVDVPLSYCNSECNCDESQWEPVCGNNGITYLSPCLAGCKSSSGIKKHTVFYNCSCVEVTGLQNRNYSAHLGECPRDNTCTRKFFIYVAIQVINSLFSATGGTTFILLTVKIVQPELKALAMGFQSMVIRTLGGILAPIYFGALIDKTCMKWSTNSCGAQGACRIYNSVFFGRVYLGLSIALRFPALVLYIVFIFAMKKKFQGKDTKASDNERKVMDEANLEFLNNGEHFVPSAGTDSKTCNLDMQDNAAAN

[3] = system: OATP1B1 and OATP1B3; experiment: Inhibition of [3H]pitavastatin accumulation in human SCH; type: in vitro ADME; conditions: for Co-Incubation R / Pre+Co-Incubation R: Hepatocytes, substrate pitavastatin, R-value model; for accumulation of [3H]pitavastatin after inhibitor pre-incubation: human SCH, washing
[4] = system: OATP1B1; conditions: OATP1B1-expressing cell line, substrate E217βG; ref Pahwa et al., 2017; cited from earlier work
[5] = target: T1, OATP1B3; conditions: OATP1B3-expressing cell line, substrate E217βG; ref Pahwa et al., 2017; cited from earlier work
[6] = system: OATP1B1 and OATP1B3; conditions: both cell lines and human SCH; vs US FDA cut-off 1.1
[7] = system: OATP1B1 and OATP1B3; conditions: transporter-expressing cell lines; ref Farasyn et al., 2019; cited from earlier work
[8] = Estimated maximum total plasma concentration at the inlet to the liver; conditions: calculated by Eq. 3 from literature parameters (Supplement Table S2)
[9] = system: OATP1B1; conditions: OATP1B1-expressing cell line, substrate rosuvastatin; ref Farasyn et al., 2019; cited from earlier work
[10] = system: OATP1B3; conditions: cited from earlier work
[11] = system: cynomolgus monkey hepatocytes; conditions: ref Ufuk et al., 2018; cited from earlier work
[12] = system: OATP1B1; conditions: read-out: Michaelis constant (Km) for OATP1B1, cited from earlier work
[13] = system: human hepatocytes; conditions: suspension of human hepatocytes, with vs without rifampicin; ref Bi et al., 2013; cited from earlier work
[14] = system: OATP1B1, NTCP, and OATP1B3; conditions: ref Ho et al., 2006; Kitamura et al., 2008; cited from earlier work
[15] = human hepatocytes, inhibitor 100 μM co-incubation, mean ± SE

Compound: O=C1OC(c2ccc(O)c(S(=O)(=O)O)c2)(c2ccc(O)c(S(=O)(=O)O)c2)c2c(Br)c(Br)c(Br)c(Br)c21 [BSP, bromosulfophthalein]
accumulation of [3H]rosuvastatin, co-incubation [1, 15]: 0.20 ± 0.09 fold of control | inhibition of rosuvastatin uptake, co-incubation ([1]; human hepatocytes, inhibitor 100 μM co-incubation, range 77–92%): ~ 84% | accumulation of [3H]CCK-8, co-incubation ([2]; human hepatocytes, inhibitor 100 μM co-incubation): 0.10 ± 0.01 fold of control | accumulation of [3H]pitavastatin, co-incubation [3, 15]: 0.44 ± 0.05 fold of control

Compound: Cc1nc(Nc2ncc(C(=O)Nc3c(C)cccc3Cl)s2)cc(N2CCN(CCO)CC2)n1 [Dasatinib, dasatinib]
Co-Incubation R [4]: 1.07 (1.04–1.09) | Pre+Co-Incubation R [4]: 1.13 (1.09–1.20) | Co-Incubation R [1]: 1.09 (1.05–1.14) | Pre+Co-Incubation R [1]: 1.27 (1.15–1.51) | Co-Incubation R [5]: 1.05 (1.05–1.09) | Pre+Co-Incubation R [5]: 1.11 (1.09–1.22) | R-values under pre+co-incubation conditions [6]: > 1.1

Pre+Co-Incubation R [1]: 1.07 (1.05–1.11) | Co-Incubation R [3]: 1.01 (1.01–1.02) | Pre+Co-Incubation R [3]: 1.09 (1.08–1.13) | maximum total plasma concentration at the inlet to the liver (Iin,max,plasma) [8]: 0.17 µM
Compound: CO[C@H]1C[C@@H]2CC[C@@H](C)[C@@](O)(O2)C(=O)C(=O)N2CCCC[C@H]2C(=O)O[C@H]([C@H](C)C[C@@H]2CC[C@@H](OCCO)[C@H](OC)C2)CC(=O)[C@H](C)/C=C(\C)[C@@H](O)[C@@H](OC)C(=O)[C@H](C)C[C@H](C)/C=C/C=C/C=C/1C [EVR, everolimus]
R values from cell lines, pre+co-incubation [7]: 1.23 | accumulation of [3H]rosuvastatin after inhibitor pre-incubation ([1]; human SCH, 1 h pre-incubation at 0.2 μM, model estimate ± SE): 0.8 ± 0.07 fold of CTL | accumulation of [3H]rosuvastatin after inhibitor pre-incubation ([1]; human SCH, 1 h pre-incubation at 0.8 μM, model estimate ± SE): 0.59 ± 0.07 fold of CTL | accumulation of [3H]pitavastatin after inhibitor pre-incubation ([3]; 1 h pre-incubation at 0.5 μM, model estimate ± SE): 0.78±0.06 fold vs. CTL

Co-Incubation R [1]: 1.00 (1.00–1.00) | Pre+Co-Incubation R [1]: 1.00 (1.00–1.00) | Co-Incubation R [3]: 1.00 (1.00–1.01) | Pre+Co-Incubation R [3]: 1.00 (1.00–1.01) | R-values under pre+co-incubation conditions [6]: < 1.1 | maximum total plasma concentration at the inlet to the liver (Iin,max,plasma) [8]: 0.03 µM
Compound: CO[C@H]1C[C@@H]2CC[C@@H](C)[C@@](O)(O2)C(=O)C(=O)N2CCCC[C@H]2C(=O)O[C@H]([C@H](C)C[C@@H]2CC[C@@H](O)[C@H](OC)C2)CC(=O)[C@H](C)/C=C(\C)[C@@H](O)[C@@H](OC)C(=O)[C@H](C)C[C@H](C)/C=C/C=C/C=C/1C [SIR, sirolimus]
Co-Incubation R [9]: 1.00 (1.00–1.03) | accumulation of [3H]rosuvastatin after inhibitor pre-incubation ([1]; human SCH, 1 h pre-incubation at 0.6 μM): 0.63 ± 0.08 fold vs. CTL | accumulation of [3H]pitavastatin after inhibitor pre-incubation ([3]; 1 h pre-incubation at 0.6 μM): did not affect

Compound: O=C(O)C[C@H](O)C[C@H](O)/C=C/c1c(C2CC2)nc2ccccc2c1-c1ccc(F)cc1 [pitavastatin]
Km ([10]; read-out: Michaelis constant (Km) for OATP1B3, ref Hirano et al., 2004): 3 µM | uptake clearance attributed to passive diffusion [11]: 20% | Km ([12]; ref Hirano et al., 2004): 3 µM

Compound: CO[C@H]1/C=C/O[C@@]2(C)Oc3c(C)c(O)c4c(O)c(c(/C=N/N5CCN(C)CC5)c(O)c4c3C2=O)NC(=O)/C(C)=C\C=C\[C@H](C)[C@H](O)[C@@H](C)[C@@H](O)[C@@H](C)[C@H](OC(C)=O)[C@@H]1C [rifampicin]
accumulation of [3H]rosuvastatin, pre+co-incubation ([1]; human SCH, inhibitor 50 μM, 1 h pre-incubation then co-incubation, mean ± SE): 0.45 ± 0.15 fold of control | accumulation of [3H]CCK-8, pre+co-incubation ([2]; human SCH, inhibitor 50 μM, 1 h pre-incubation then co-incubation): 0.18 ±0.12 fold of control

Compound: CC(C)c1nc(N(C)S(C)(=O)=O)nc(-c2ccc(F)cc2)c1/C=C/[C@@H](O)C[C@@H](O)CC(=O)O [rosuvastatin]
Km ([10]; read-out: Michaelis constant (Km) for OATP1B3, ref Kitamura et al., 2008): 14.2 µM | uptake clearance attributed to passive diffusion [11]: 4% | share of total hepatic uptake clearance due to active transport processes [13]: approximately 90% | contribution of NTCP to active uptake into human hepatocytes [14]: ~35% | contribution of OATP1B1 to active uptake into human hepatocytes [14]: ~ 50% | contribution of OATP1B3 to active uptake into human hepatocytes [14]: ~15% | Km ([12]; ref Kitamura et al., 2008): 0.8 µM

Compound: cholecystokinin 8 [CCK-8]
Km [10]: 3.8 µM
